From article PMC11356819 (Molecules, 2024)

Tests used:
U87-WT tumors = test: PET imaging and 2TCM kinetic modelling of subcutaneous U87-WT tumors; type: in vivo
From the text: (§1) The in vivo tumor uptake and mIDH selectivity of [^18F]4 were investigated by small animal PET imaging in CB17-SCID mice bearing subcutaneous U87-WT and U87-mIDH tumors, which were implanted in the right and left shoulder region, respectively (Figure 6).
(§2) Although the use of an image-derived input function instead of an invasive arterial input function could introduce some degree of systematic bias (due to, e.g., a lack of correction for spill-over and metabolism), this should affect the parameter estimation for both tumors in a given animal in the same manner and therefore have little impact on inter-tumor comparisons.
(§3) Six male CB17-SCID mice (24–26 g) were used for the subcutaneous tumor model. Twenty-four hours before tumor implantation, the animals were injected (i.p.) with 20 µL anti-asialo GM1 rabbit (Fujifilm Wako Chemicals Europe GmbH, Neuss, Germany) in 0.9% NaCl (total volume: 100 µL) to promote tumor cell survival and growth through a temporary reduction in natural killer cell activity. For tumor inoculation, suspensions of 5 × 10^6 tumor cells in 75 µL culture medium and 75 µL Corning Matrigel (Merck, Darmstadt, Germany) were injected subcutaneously into the right (U87-WT cells) and left (U87-mIDH cells) shoulder region.
(§4) The mice were anesthetized with isoflurane (5% for induction, 2% for maintenance) in O2/air (3:7), and a catheter for tracer injection was inserted into the lateral tail vein. They were placed on an animal holder (Medres, Cologne, Germany) and fixed with a tooth bar in a respiratory mask. Body temperature was maintained at 37 °C by warming the animal bed. Eyes were protected from drying with Bepanthen eye and nose ointment (Bayer, Leverkusen, Germany). Respiratory rate was monitored and maintained at around 40–60 breaths per minute by adjusting the isoflurane concentration. A PET scan in list mode was conducted using a Focus 220 micro PET scanner (CTI-Siemens, Erlangen, Germany) with a resolution at the center of the field of view of 1.4 mm. Data acquisition started with intravenous tracer injection and ended after 120 min. This was followed by a 10 min transmission scan using a ^57Co point source for attenuation correction. After the scan was completed, the catheter was removed and the animals were allowed to wake up in their home cage. Data were histogrammed in three ways: (1) 4 × 30 min frames for visual display, (2) 28 frames (2 × 1 min, 2 × 2 min, 6 × 4 min, 18 × 5 min) for determination of time–activity curves, (3) 53 frames (12 × 10 s, 6 × 30 s, 15 × 1 min, 20 × 5 min) for kinetic modelling. Full 3D rebinning was followed by an iterative OSEM3D/MAP reconstruction algorithm with attenuation and decay correction. The resulting voxel sizes were 0.47 mm × 0.47 mm × 0.80 mm.

U87-mIDH tumors = test: PET imaging and 2TCM kinetic modelling of subcutaneous U87-mIDH tumors; type: in vivo
From the text: as §1, §2, §3, §4

In the case of COc1cc(NCc2cc3cc([18F])ccc3[nH]c2=O)ccc1C#N [[^18F]4], the “Ratio (WT/mIDH) of SUVbw” value (U87-WT tumors; 0–30 min) is reported as 1.1, the “SUVbw U87-WT” value (U87-WT tumors; 0–30 min) is reported as 35 ± 4 and the “Ratio (WT/mIDH) of SUVbw” value (U87-WT tumors; 30–60 min) is reported as 1.7. For the same compound, the “SUVbw U87-WT” value (U87-WT tumors; 30–60 min) was 42 ± 9, the “Ratio (WT/mIDH) of SUVbw” value (U87-WT tumors; 60–90 min) was 1.9 and the “SUVbw U87-WT” value (U87-WT tumors; 60–90 min) was 36 ± 10. For the same compound, the “Ratio (WT/mIDH) of SUVbw” value (U87-WT tumors; 90–120 min) was 1.9, the “SUVbw U87-WT” value (U87-WT tumors; 90–120 min) was 30 ± 10 and the K1 (U87-WT tumors; U87-WT tumor, 2TCM, n = 5) was 0.174 ± 0.068 mL/ccm/min. The K1/k2 (U87-WT tumors; U87-WT tumor, 2TCM, n = 5) was 0.345 ± 0.172 mL/ccm, the “VS (specific distribution volume)” value (U87-WT tumors; U87-WT tumor, 2TCM, n = 5) was 0.576 ± 0.143 mL/ccm and the “VT (total distribution volume)” value (U87-WT tumors; U87-WT tumor, 2TCM, n = 5) was 0.921 ± 0.250 mL/ccm. The k2 (U87-WT tumors; U87-WT tumor, 2TCM, n = 5) was 0.553 ± 0.238 min⁻¹, the k3 (U87-WT tumors; U87-WT tumor, 2TCM, n = 5) was 0.089 ± 0.059 min⁻¹ and the “k3/k4, BPND (non-displaceable binding potential)” value (U87-WT tumors; U87-WT tumor, 2TCM, n = 5) was 1.874 ± 0.653 1/1. The k4 (U87-WT tumors; U87-WT tumor, 2TCM, n = 5) was 0.044 ± 0.022 min⁻¹, the “max. SUVbw U87-WT tumors” value (U87-WT tumors; after 38 min, n = 3) was 45 ± 8 and the “SUVbw U87-mIDH” value (U87-mIDH tumors; 0–30 min) was 31 ± 3. For the same compound, the “SUVbw U87-mIDH” value (U87-mIDH tumors; 30–60 min) was 24 ± 2, the “SUVbw U87-mIDH” value (U87-mIDH tumors; 60–90 min) was 18 ± 1 and the “SUVbw U87-mIDH” value (U87-mIDH tumors; 90–120 min) was 16 ± 1. For the same compound, the K1 (U87-mIDH tumors; U87-mIDH tumor, 2TCM, n = 5) was 0.141 ± 0.047 mL/ccm/min, the K1/k2 (U87-mIDH tumors; U87-mIDH tumor, 2TCM, n = 5) was 0.246 ± 0.063 mL/ccm and the “VS (specific distribution volume)” value (U87-mIDH tumors; U87-mIDH tumor, 2TCM, n = 5) was 0.225 ± 0.070 mL/ccm. The “VT (total distribution volume)” value (U87-mIDH tumors; U87-mIDH tumor, 2TCM, n = 5) was 0.471 ± 0.084 mL/ccm, the k2 (U87-mIDH tumors; U87-mIDH tumor, 2TCM, n = 5) was 0.578 ± 0.173 min⁻¹ and the k3 (U87-mIDH tumors; U87-mIDH tumor, 2TCM, n = 5) was 0.057 ± 0.040 min⁻¹. The “k3/k4, BPND (non-displaceable binding potential)” value (U87-mIDH tumors; U87-mIDH tumor, 2TCM, n = 5) was 0.962 ± 0.399 1/1, the k4 (U87-mIDH tumors; U87-mIDH tumor, 2TCM, n = 5) was 0.053 ± 0.023 min⁻¹ and the “max. SUVbw U87-mIDH tumors” value (U87-mIDH tumors; peak after 8 min, n = 3) was 35 ± 8.
